Laboratory results published in US20250367166A1, “NEXT GENERATION DIPROVOCIMS THAT ACTIVATE THE INNATE AND ADAPTIVE IMMUNE RESPONSE” (The Scripps Research Institute, priority 2022, published 2025).
pEC50: −log10 of the molar value. Like-named read-outs stand apart in the source and are kept apart here.

Legend:
TLR1/TLR2 [1] = target: TLR1/TLR2 (Mus musculus, UniProt Q9EPQ1+Q9QUN7); assay: TNF-α release from thioglycolate-elicited mouse peritoneal macrophages (ELISA); conditions: for Emax: 4 h, read-out: Efficacy (magnitude) of response versus diprovocim-1 (100%), mouse macrophages; for EC50: read-out: EC50 (nM) (mouse): EC50 TNF-α release from mouse macrophages, Table 3
TLR1/TLR2 [2] = target: TLR1/TLR2 (Homo sapiens, UniProt O60603+Q15399); assay: TNF-α release from PMA-differentiated human THP-1 cells (ELISA); conditions: for EC50: read-out: EC50 (nM) (THP-1): EC50 TNF-α release from human THP-1 cells; for Emax: THP-1, 4 h, read-out: Efficacy (magnitude) of response versus diprovocim-1 (100%), THP-1;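 as to all read-outs here: cells exposed to graded compound concentrations for 4 h, TNF-α quantified in supernatant, LPS as positive and DMSO as negative control, values are duplicate means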
Chain of TLR1/TLR2 (Homo sapiens, UniProt O60603+Q15399) (Q15399 25-786): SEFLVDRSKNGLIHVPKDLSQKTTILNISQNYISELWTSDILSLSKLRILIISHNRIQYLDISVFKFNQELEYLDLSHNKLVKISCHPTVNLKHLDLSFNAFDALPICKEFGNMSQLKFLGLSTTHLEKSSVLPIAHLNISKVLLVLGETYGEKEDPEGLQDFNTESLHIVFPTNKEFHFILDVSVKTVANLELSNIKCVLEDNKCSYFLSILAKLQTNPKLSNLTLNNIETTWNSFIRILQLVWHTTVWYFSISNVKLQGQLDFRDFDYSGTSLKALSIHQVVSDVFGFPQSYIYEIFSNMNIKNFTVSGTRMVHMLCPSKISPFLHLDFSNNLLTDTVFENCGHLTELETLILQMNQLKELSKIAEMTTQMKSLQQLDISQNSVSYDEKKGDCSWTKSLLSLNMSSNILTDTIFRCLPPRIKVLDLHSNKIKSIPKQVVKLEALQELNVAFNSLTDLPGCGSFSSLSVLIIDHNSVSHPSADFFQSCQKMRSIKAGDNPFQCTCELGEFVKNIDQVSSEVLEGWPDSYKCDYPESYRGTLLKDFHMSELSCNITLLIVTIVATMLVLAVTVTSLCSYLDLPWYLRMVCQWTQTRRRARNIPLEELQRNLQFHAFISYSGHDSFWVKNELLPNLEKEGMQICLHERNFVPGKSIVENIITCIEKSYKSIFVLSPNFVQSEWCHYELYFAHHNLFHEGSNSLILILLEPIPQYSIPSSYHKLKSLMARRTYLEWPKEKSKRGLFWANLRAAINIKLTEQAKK
Chain of TLR1/TLR2 (Homo sapiens, UniProt O60603+Q15399) (O60603 21-784): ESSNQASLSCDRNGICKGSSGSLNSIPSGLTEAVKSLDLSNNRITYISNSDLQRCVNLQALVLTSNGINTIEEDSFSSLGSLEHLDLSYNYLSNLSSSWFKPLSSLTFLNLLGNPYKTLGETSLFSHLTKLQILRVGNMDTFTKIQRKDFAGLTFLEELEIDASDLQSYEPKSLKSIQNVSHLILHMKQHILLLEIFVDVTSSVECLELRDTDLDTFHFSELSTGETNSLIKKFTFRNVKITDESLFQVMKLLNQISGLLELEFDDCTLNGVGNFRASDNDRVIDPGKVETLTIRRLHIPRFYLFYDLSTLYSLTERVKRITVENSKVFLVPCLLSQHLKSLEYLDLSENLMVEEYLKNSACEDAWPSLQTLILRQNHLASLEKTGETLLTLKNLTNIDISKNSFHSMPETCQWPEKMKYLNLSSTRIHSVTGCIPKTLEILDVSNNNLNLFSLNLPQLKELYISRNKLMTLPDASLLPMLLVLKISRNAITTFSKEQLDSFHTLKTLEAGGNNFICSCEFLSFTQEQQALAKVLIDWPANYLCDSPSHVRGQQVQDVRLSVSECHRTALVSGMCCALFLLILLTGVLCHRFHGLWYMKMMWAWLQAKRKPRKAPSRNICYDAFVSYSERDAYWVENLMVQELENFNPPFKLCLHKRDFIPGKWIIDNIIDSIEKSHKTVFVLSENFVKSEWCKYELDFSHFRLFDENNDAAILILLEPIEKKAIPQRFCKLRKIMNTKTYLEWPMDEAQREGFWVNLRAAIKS

Chain of TLR1/TLR2 (Mus musculus, UniProt Q9EPQ1+Q9QUN7) (Q9EPQ1 26-795): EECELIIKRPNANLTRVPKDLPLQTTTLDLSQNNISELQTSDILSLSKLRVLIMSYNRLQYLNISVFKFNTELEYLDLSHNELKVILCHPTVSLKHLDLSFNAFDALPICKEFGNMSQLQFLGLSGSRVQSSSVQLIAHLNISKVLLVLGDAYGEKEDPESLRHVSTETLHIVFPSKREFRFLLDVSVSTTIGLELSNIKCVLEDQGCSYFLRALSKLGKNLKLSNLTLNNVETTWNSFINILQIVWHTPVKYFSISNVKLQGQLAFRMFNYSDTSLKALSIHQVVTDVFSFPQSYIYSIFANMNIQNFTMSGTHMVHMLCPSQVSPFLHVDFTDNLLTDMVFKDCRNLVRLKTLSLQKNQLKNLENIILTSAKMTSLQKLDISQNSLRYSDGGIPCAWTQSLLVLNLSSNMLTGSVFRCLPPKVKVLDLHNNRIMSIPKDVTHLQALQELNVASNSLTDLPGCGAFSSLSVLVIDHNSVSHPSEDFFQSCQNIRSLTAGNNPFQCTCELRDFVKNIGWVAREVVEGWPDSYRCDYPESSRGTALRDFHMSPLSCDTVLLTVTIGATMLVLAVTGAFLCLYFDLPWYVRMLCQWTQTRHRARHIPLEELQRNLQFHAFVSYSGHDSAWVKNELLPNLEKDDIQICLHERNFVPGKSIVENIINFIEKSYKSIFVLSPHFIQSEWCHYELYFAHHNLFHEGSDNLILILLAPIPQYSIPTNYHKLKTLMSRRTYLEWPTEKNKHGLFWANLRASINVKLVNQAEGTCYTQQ
Chain of TLR1/TLR2 (Mus musculus, UniProt Q9EPQ1+Q9QUN7) (Q9QUN7 25-784): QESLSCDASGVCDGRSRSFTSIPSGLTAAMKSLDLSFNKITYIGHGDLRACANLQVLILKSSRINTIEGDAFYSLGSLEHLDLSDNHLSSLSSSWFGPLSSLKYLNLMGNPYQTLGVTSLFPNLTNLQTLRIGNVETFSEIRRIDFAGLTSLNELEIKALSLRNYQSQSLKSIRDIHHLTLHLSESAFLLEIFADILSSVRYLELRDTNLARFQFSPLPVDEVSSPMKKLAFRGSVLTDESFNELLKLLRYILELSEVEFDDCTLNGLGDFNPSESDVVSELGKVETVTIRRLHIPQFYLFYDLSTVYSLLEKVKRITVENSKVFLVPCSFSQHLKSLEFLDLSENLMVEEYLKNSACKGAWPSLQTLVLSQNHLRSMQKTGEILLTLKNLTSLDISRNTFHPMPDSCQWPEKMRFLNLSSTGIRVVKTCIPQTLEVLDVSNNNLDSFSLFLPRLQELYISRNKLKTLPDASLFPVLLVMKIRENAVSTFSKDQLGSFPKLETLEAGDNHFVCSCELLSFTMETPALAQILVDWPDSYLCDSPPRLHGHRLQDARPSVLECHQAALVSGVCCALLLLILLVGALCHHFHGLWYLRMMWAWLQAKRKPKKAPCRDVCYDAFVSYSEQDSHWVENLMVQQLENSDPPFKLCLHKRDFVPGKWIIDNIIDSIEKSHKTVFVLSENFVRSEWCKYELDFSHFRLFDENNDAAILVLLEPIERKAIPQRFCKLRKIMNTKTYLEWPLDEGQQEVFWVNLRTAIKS

Row | pEC50 (TLR1/TLR2 [1]) | EC50 (TLR1/TLR2 [2]; Table 2) [nM] | Emax (TLR1/TLR2 [1]) [%] | EC50 (TLR1/TLR2 [1]) [nM] | Emax (TLR1/TLR2 [2]) [%] | EC50 (TLR1/TLR2 [2]; Table 3) [nM] | SMILES
1 | < 5.30 | 100 | – | – | – | – | O=C(O)CCOCCOCCOCCNC(=O)[C@@H]1CN(C(=O)c2ccc(C(=O)N3C[C@@H](C(=O)N[C@H]4C[C@@H]4c4ccccc4)[C@H](C(=O)N[C@H]4C[C@@H]4c4ccccc4)C3)cc2)C[C@H]1C(=O)N[C@H]1C[C@@H]1c1ccccc1 [Compound 31, 1-((3S,4S)-1-(4-((3S,4S)-3,4-Bis(((1S,2R)-2-phenylcyclopropyl)carbamoyl)pyrrolidine-1-carbonyl)benzoyl)-4-(((1S,2R)-2-phenylcyclopropyl)-carbamoyl)pyrrolidin-3-yl)-1-oxo-5,8,11-trioxa-2-azatetradecan-14-oic acid]
2 | – | – | 140 | 1.5 | 130 | 0.14 | CC(=O)OCCCCCCCCCCCCNC(=O)[C@@H]1CN(C(=O)c2ccc(C(=O)N3C[C@@H](C(=O)N[C@H]4C[C@@H]4c4ccccc4)[C@H](C(=O)N[C@H]4C[C@@H]4c4ccccc4)C3)cc2)C[C@H]1C(=O)N[C@H]1C[C@@H]1c1ccccc1 [Compound 32, 12-((3S,4S)-1-(4-((3S,4S)-3,4-Bis(((1S,2R)-2-phenyl-cyclopropyl)carbamoyl)pyrrolidine-1-carbonyl)benzoyl)-4-(((1S,2R)-2-phenylcyclopropyl)carbamoyl)pyrrolidine-3-carboxamido)dodecyl acetate]
3 | – | – | 120 | 4.5 | 100 | 0.25 | N#CCC(=O)OCCCCCCCCCCCCNC(=O)[C@@H]1CN(C(=O)c2ccc(C(=O)N3C[C@@H](C(=O)N[C@H]4C[C@@H]4c4ccccc4)[C@H](C(=O)N[C@H]4C[C@@H]4c4ccccc4)C3)cc2)C[C@H]1C(=O)N[C@H]1C[C@@H]1c1ccccc1 [Compound 33, 12-((3S,4S)-1-(4-((3S,4S)-3,4-Bis(((1S,2R)-2-phenylcyclopropyl)carbamoyl)pyrrolidine-1-carbonyl)benzoyl)-4-(((1S,2R)-2-phenylcyclopropyl)-carbamoyl)pyrrolidine-3-carboxamido)dodecyl 2-cyanoacetate]
4 | – | – | 120 | 3.7 | 100 | 0.21 | [N-]=[N+]=NCC(=O)OCCCCCCCCCCCCNC(=O)[C@@H]1CN(C(=O)c2ccc(C(=O)N3C[C@@H](C(=O)N[C@H]4C[C@@H]4c4ccccc4)[C@H](C(=O)N[C@H]4C[C@@H]4c4ccccc4)C3)cc2)C[C@H]1C(=O)N[C@H]1C[C@@H]1c1ccccc1 [Compound 34, 12-((3S,4S)-1-(4-((3S,4S)-3,4-Bis(((1S,2R)-2-phenylcyclopropyl)carbamoyl)pyrrolidine-1-carbonyl)-benzoyl)-4-(((1S,2R)-2-phenylcyclopropyl)carbamoyl)-pyrrolidine-3-carboxamido)dodecyl 2-azidoacetate]
5 | – | – | 410 | 40 | 100 | 0.1 | O=C(CNC(=O)OCc1ccccc1)OCCCCCCCCCCCCNC(=O)[C@@H]1CN(C(=O)c2ccc(C(=O)N3C[C@@H](C(=O)N[C@H]4C[C@@H]4c4ccccc4)[C@H](C(=O)N[C@H]4C[C@@H]4c4ccccc4)C3)cc2)C[C@H]1C(=O)N[C@H]1C[C@@H]1c1ccccc1 [Compound 36, 12-((3S,4S)-1-(4-((3S,4S)-3,4-Bis(((1S,2R)-2-phenyl-cyclopropyl)carbamoyl)pyrrolidine-1-carbonyl)-benzoyl)-4-(((1S,2R)-2-phenylcyclopropyl)carbamoyl)-pyrrolidine-3-carboxamido)-dodecyl 2-(((benzyloxy)carbonyl)-amino)acetate]
6 | – | – | 300 | 3.4 | 100 | 0.27 | O=C(CNC(=O)OCC(Cl)(Cl)Cl)OCCCCCCCCCCCCNC(=O)[C@@H]1CN(C(=O)c2ccc(C(=O)N3C[C@@H](C(=O)N[C@H]4C[C@@H]4c4ccccc4)[C@H](C(=O)N[C@H]4C[C@@H]4c4ccccc4)C3)cc2)C[C@H]1C(=O)N[C@H]1C[C@@H]1c1ccccc1 [Compound 37, 12-((3S,4S)-1-(4-((3S,4S)-3,4-Bis(((1S,2R)-2-phenyl-cyclopropyl)carbamoyl)pyrrolidine-1-carbonyl)benzoyl)-4-(((1S,2R)-2-phenylcyclopropyl)carbamoyl)pyrrolidine-3-carboxamido)-dodecyl 2-(((2,2,2-trichloroethoxy)-carbonyl)amino)acetate]
7 | – | – | 170 | 375 | 100 | 56 | O=C(CNC(=O)OCC1c2ccccc2-c2ccccc21)OCCCCCCCCCCCCNC(=O)[C@@H]1CN(C(=O)c2ccc(C(=O)N3C[C@@H](C(=O)N[C@H]4C[C@@H]4c4ccccc4)[C@H](C(=O)N[C@H]4C[C@@H]4c4ccccc4)C3)cc2)C[C@H]1C(=O)N[C@H]1C[C@@H]1c1ccccc1 [Compound 38, 12-((3S,4S)-1-(4-((3S,4S)-3,4-Bis(((1S,2R)-2-phenyl-cyclopropyl)carbamoyl)pyrrolidine-1-carbonyl)benzoyl)-4-(((1S,2R)-2-phenylcyclopropyl)carbamoyl)pyrrolidine-3-carboxamido)-dodecyl 2-((((9H-fluoren-9-yl)methoxy)carbonyl)amino)acetate]
8 | – | – | 120 | 6 | 100 | 0.38 | COC(=O)NCC(=O)OCCCCCCCCCCCCNC(=O)[C@@H]1CN(C(=O)c2ccc(C(=O)N3C[C@@H](C(=O)N[C@H]4C[C@@H]4c4ccccc4)[C@H](C(=O)N[C@H]4C[C@@H]4c4ccccc4)C3)cc2)C[C@H]1C(=O)N[C@H]1C[C@@H]1c1ccccc1 [Compound 39, 12-((3S,4S)-1-(4-((3S,4S)-3,4-Bis(((1S,2R)-2-phenylcyclopropyl)carbamoyl)pyrrolidine-1-carbonyl)benzoyl)-4-(((1S,2R)-2-phenylcyclopropyl)-carbamoyl)pyrrolidine-3-carboxamido)-dodecyl 2-((methoxycarbonyl)amino)acetate]
9 | – | – | 180 | 5 | 90 | 0.1 | CC(=O)NCC(=O)OCCCCCCCCCCCCNC(=O)[C@@H]1CN(C(=O)c2ccc(C(=O)N3C[C@@H](C(=O)N[C@H]4C[C@@H]4c4ccccc4)[C@H](C(=O)N[C@H]4C[C@@H]4c4ccccc4)C3)cc2)C[C@H]1C(=O)N[C@H]1C[C@@H]1c1ccccc1 [Compound 40, 12-((3S,4S)-1-(4-((3S,4S)-3,4-Bis(((1S,2R)-2-phenyl-cyclopropyl)carbamoyl)pyrrolidine-1-carbonyl)-benzoyl)-4-(((1S,2R)-2-phenylcyclopropyl)-carbamoyl)pyrrolidine-3-carboxamido)-dodecyl 2-acetamidoacetate]
10 | – | – | 100 | 3.5 | 100 | 0.7 | O=C(CNC(=O)C(F)(F)F)OCCCCCCCCCCCCNC(=O)[C@@H]1CN(C(=O)c2ccc(C(=O)N3C[C@@H](C(=O)N[C@H]4C[C@@H]4c4ccccc4)[C@H](C(=O)N[C@H]4C[C@@H]4c4ccccc4)C3)cc2)C[C@H]1C(=O)N[C@H]1C[C@@H]1c1ccccc1 [Compound 41, 12-((3S,4S)-1-(4-((3S,4S)-3,4-Bis(((1S,2R)-2-phenyl-cyclopropyl)carbamoyl)pyrrolidine-1-carbonyl)benzoyl)-4-(((1S,2R)-2-phenylcyclopropyl)-carbamoyl)pyrrolidine-3-carboxamido)-dodecyl 2-(2,2,2-trifluoroacetamido)acetate]
